Values after ≈ are worked out from the molar mass of the structure shown.
Experiments:
Staphylococcus aureus [1] = assay: Growth inhibition of Staphylococcus aureus NCIM 2602 at 1 ug/ml measured after 12 hrs relative to control; assay type: functional; conditions: NCIM 2602, 12 h, read-out: GI
[2] = tested on: Mycobacterium tuberculosis; assay: Growth inhibition of Mycobacterium bovis BCG ATCC 35743 at 1 ug/ml by nitrate reductase based two-fold dilution assay relative to control; assay type: functional; conditions: BCG str. ATCC 35743, read-out: GI
[3] = tested on: Mycobacterium tuberculosis; assay: Growth inhibition of Mycobacterium bovis BCG ATCC 35743 at 30 ug/ml by nitrate reductase based two-fold dilution assay relative to control; assay type: functional; conditions: BCG str. ATCC 35743, read-out: GI
[4] = tested on: Mycobacterium tuberculosis; assay: Growth inhibition of Mycobacterium bovis BCG ATCC 35743 at 10 ug/ml by nitrate reductase based two-fold dilution assay relative to control; assay type: functional; conditions: BCG str. ATCC 35743, read-out: GI
[5] = tested on: Mycobacterium tuberculosis; assay: Growth inhibition of Mycobacterium tuberculosis H37Ra ATCC 25177 at 30 ug/ml by XTT dye based two-fold dilution method relative to control; assay type: functional; conditions: read-out: GI
Bacillus subtilis [6] = assay: Growth inhibition of Bacillus subtilis NCIM 2162 at 30 ug/ml measured after 12 hrs relative to control; assay type: functional; conditions: NCIM 2162, 12 h, read-out: GI
Bacillus subtilis [7] = assay: Antibacterial activity against Bacillus subtilis NCIM 2162 measured after 12 hrs; assay type: functional; conditions: NCIM 2162, 12 h
[8] = tested on: Mycobacterium tuberculosis; assay: Growth inhibition of Mycobacterium tuberculosis H37Ra ATCC 25177 at 3 ug/ml by XTT dye based two-fold dilution method relative to control; assay type: functional; conditions: read-out: GI
Pseudomonas fluorescens [9] = assay: Antibacterial activity against Pseudomonas fluorescens NCIM 2059 measured after 8 hrs; assay type: functional; conditions: NCIM 2059, 8 h
Escherichia coli [10] = assay: Antibacterial activity against Escherichia coli NCIM 2576 measured after 8 hrs; assay type: functional; conditions: NCIM 2576, 8 h
Pseudomonas fluorescens [11] = assay: Growth inhibition of Pseudomonas fluorescens NCIM 2059 at 30 ug/ml measured after 8 hrs relative to control; assay type: functional; conditions: NCIM 2059, 8 h, read-out: GI
Escherichia coli [12] = assay: Growth inhibition of Escherichia coli NCIM 2576 at 30 ug/ml measured after 8 hrs relative to control; assay type: functional; conditions: NCIM 2576, 8 h, read-out: GI
Pseudomonas fluorescens [13] = assay: Growth inhibition of Pseudomonas fluorescens NCIM 2059 at 1 ug/ml measured after 8 hrs relative to control; assay type: functional; conditions: NCIM 2059, 8 h, read-out: GI
Staphylococcus aureus [14] = assay: Antibacterial activity against Staphylococcus aureus NCIM 2602 measured after 12 hrs; assay type: functional; conditions: NCIM 2602, 12 h
Bacillus subtilis [15] = assay: Growth inhibition of Bacillus subtilis NCIM 2162 at 10 ug/ml measured after 12 hrs relative to control; assay type: functional; conditions: NCIM 2162, 12 h, read-out: GI
[16] = tested on: Mycobacterium tuberculosis; assay: Antitubercular activity against Mycobacterium bovis BCG ATCC 35743 dormant stage by nitrate reductase based two-fold dilution assay; assay type: functional; conditions: BCG str. ATCC 35743
Staphylococcus aureus [17] = assay: Growth inhibition of Staphylococcus aureus NCIM 2602 at 30 ug/ml measured after 12 hrs relative to control; assay type: functional; conditions: NCIM 2602, 12 h, read-out: GI
[18] = tested on: Mycobacterium tuberculosis; assay: Growth inhibition of Mycobacterium tuberculosis H37Ra ATCC 25177 at 10 ug/ml by XTT dye based two-fold dilution method relative to control; assay type: functional; conditions: read-out: GI
Staphylococcus aureus [19] = assay: Growth inhibition of Staphylococcus aureus NCIM 2602 at 10 ug/ml measured after 12 hrs relative to control; assay type: functional; conditions: NCIM 2602, 12 h, read-out: GI
[20] = tested on: Mycobacterium tuberculosis; assay: Antitubercular activity against Mycobacterium tuberculosis H37Ra ATCC 25177 dormant stage by XTT dye based two-fold dilution method; assay type: functional
Escherichia coli [21] = assay: Growth inhibition of Escherichia coli NCIM 2576 at 10 ug/ml measured after 8 hrs relative to control; assay type: functional; conditions: NCIM 2576, 8 h, read-out: GI
Pseudomonas fluorescens [22] = assay: Growth inhibition of Pseudomonas fluorescens NCIM 2059 at 10 ug/ml measured after 8 hrs relative to control; assay type: functional; conditions: NCIM 2059, 8 h, read-out: GI
Bacillus subtilis [23] = assay: Growth inhibition of Bacillus subtilis NCIM 2162 at 1 ug/ml measured after 12 hrs relative to control; assay type: functional; conditions: NCIM 2162, 12 h, read-out: GI
Escherichia coli [24] = assay: Growth inhibition of Escherichia coli NCIM 2576 at 1 ug/ml measured after 8 hrs relative to control; assay type: functional; conditions: NCIM 2576, 8 h, read-out: GI
A549 = assay: (§1) Growth inhibition of human A549 cells by MTT assay; assay type: cell-based; conditions: a549
PANC-1 = assay: (§2) Growth inhibition of human PANC1 cells by MTT assay; assay type: cell-based; conditions: panc-1
HeLa = assay: (§3) Growth inhibition of human HeLa cells by MTT assay; assay type: cell-based; conditions: hela
[25] = as §1; assay type: cell-based; conditions: A549 cells
[26] = as §2; assay type: cell-based, PANC-1; conditions: PANC-1 cells
[27] = as §3; assay type: cell-based; conditions: HeLa cells

Compound | inhibition of growth at 1 µg/mL (Staphylococcus aureus [1]) [%] | inhibition of growth at 1 µg/mL [2] [%] | inhibition of growth at 30 µg/mL [3] [%] | inhibition of growth at 10 µg/mL [4] [%] | inhibition of growth at 30 µg/mL [5] [%] | inhibition of growth at 30 µg/mL (Bacillus subtilis [6]) [%] | MIC (Bacillus subtilis [7]) [µM] | inhibition of growth at 3 µg/mL [8] [%] | MIC (Pseudomonas fluorescens [9]) [µM] | MIC (Escherichia coli [10]) [µM] | inhibition of growth at 30 µg/mL (Pseudomonas fluorescens [11]) [%] | inhibition of growth at 30 µg/mL (Escherichia coli [12]) [%] | inhibition of growth at 1 µg/mL (Pseudomonas fluorescens [13]) [%] | MIC (Staphylococcus aureus [14]) [µM] | inhibition of growth at 10 µg/mL (Bacillus subtilis [15]) [%] | IC50 [16] [µM] | MIC90 [16] [µM] | inhibition of growth at 10 µg/mL [18] [%] | IC50 [20] [µM] | MIC90 [20] [µM] | further results
Cc1nc(-c2ccc(F)cc2)oc1-c1csc(-c2ccc(Br)cc2)n1 | 44.1 | 28 | 42 | 36 | 54 | 68.2 | > 100 | 43 | > 100 | > 100 | 68.3 | 69 | 48.6 | > 100 | 51.8 | > 100 | > 100 | 45 | > 100 | > 100 | inhibition of growth at 30 µg/mL (Staphylococcus aureus [17]): 67.8%; inhibition of growth at 10 µg/mL (Staphylococcus aureus [19]): 56.6%; inhibition of growth at 10 µg/mL (Escherichia coli [21]): 60.7%; inhibition of growth at 10 µg/mL (Pseudomonas fluorescens [22]): 54.2%; inhibition of growth at 1 µg/mL (Bacillus subtilis [23]): 46.5%; inhibition of growth at 1 µg/mL (Escherichia coli [24]): 48.9%
Cc1nc(-c2ccc(F)cc2)oc1-c1csc(-c2ccc(F)c(Cl)c2)n1 | 45.7 | 21 | 29 | 23 | 13 | 69.4 | > 100 | 6 | > 100 | > 100 | 65.8 | 64.2 | 44.3 | > 100 | 55.6 | > 100 | > 100 | 11 | > 100 | > 100 | inhibition of growth at 30 µg/mL (Staphylococcus aureus [17]): 63%; inhibition of growth at 10 µg/mL (Staphylococcus aureus [19]): 55.2%; inhibition of growth at 10 µg/mL (Escherichia coli [21]): 55.9%; inhibition of growth at 10 µg/mL (Pseudomonas fluorescens [22]): 56.2%; inhibition of growth at 1 µg/mL (Bacillus subtilis [23]): 41.2%; inhibition of growth at 1 µg/mL (Escherichia coli [24]): 45.7%
Cc1nc(-c2ccc(F)cc2)oc1-c1csc(-c2ccccc2)n1 | 24 | 28 | 33 | 32 | 31 | 53.3 | > 100 | 13 | > 100 | > 100 | 53.1 | 50.7 | 22.4 | > 100 | 47.8 | > 100 | > 100 | 13 | > 100 | > 100 | inhibition of growth at 30 µg/mL (Staphylococcus aureus [17]): 58.8%; inhibition of growth at 10 µg/mL (Staphylococcus aureus [19]): 40.7%; inhibition of growth at 10 µg/mL (Escherichia coli [21]): 47.8%; inhibition of growth at 10 µg/mL (Pseudomonas fluorescens [22]): 41.9%; inhibition of growth at 1 µg/mL (Bacillus subtilis [23]): 21%; inhibition of growth at 1 µg/mL (Escherichia coli [24]): 21.3%
Cc1nc(-c2ccc(F)cc2)oc1-c1csc(Cc2ccc(Cl)cc2)n1 | 5.76 | 24 | 42 | 32 | 39 | 27.6 | > 100 | 9 | > 100 | > 100 | 20.9 | 21 | 4.37 | > 100 | 13.9 | > 100 | > 100 | 25 | > 100 | > 100 | inhibition of growth at 30 µg/mL (Staphylococcus aureus [17]): 21.1%; inhibition of growth at 10 µg/mL (Staphylococcus aureus [19]): 14.1%; inhibition of growth at 10 µg/mL (Escherichia coli [21]): 16.1%; inhibition of growth at 10 µg/mL (Pseudomonas fluorescens [22]): 20.1%; inhibition of growth at 1 µg/mL (Bacillus subtilis [23]): 9.95%; inhibition of growth at 1 µg/mL (Escherichia coli [24]): 7.55%
Cc1nc(-c2ccc(F)cc2)oc1-c1csc(-c2ccc(Cl)cc2)n1 | 8.6 | 25 | 33 | 29 | 13 | 20.5 | > 100 | 3 | > 100 | > 100 | 21.5 | 24.9 | 0.52 | > 100 | 12.9 | > 100 | > 100 | 4 | > 100 | > 100 | inhibition of growth at 30 µg/mL (Staphylococcus aureus [17]): 25.8%; inhibition of growth at 10 µg/mL (Staphylococcus aureus [19]): 19.5%; inhibition of growth at 10 µg/mL (Escherichia coli [21]): 10.4%; inhibition of growth at 10 µg/mL (Pseudomonas fluorescens [22]): 20.7%; inhibition of growth at 1 µg/mL (Bacillus subtilis [23]): 4.2%; inhibition of growth at 1 µg/mL (Escherichia coli [24]): 5.86%
Cc1nc(-c2ccc(F)cc2)oc1-c1csc(-c2cccc(Cl)c2)n1 | 28.5 | 23 | 32 | 24 | 32 | 50.8 | > 100 | 29 | > 100 | > 100 | 48.3 | 49.5 | 24.8 | > 100 | 40.6 | > 100 | > 100 | 29 | > 100 | > 100 | inhibition of growth at 30 µg/mL (Staphylococcus aureus [17]): 48.1%; inhibition of growth at 10 µg/mL (Staphylococcus aureus [19]): 35.7%; inhibition of growth at 10 µg/mL (Escherichia coli [21]): 40.5%; inhibition of growth at 10 µg/mL (Pseudomonas fluorescens [22]): 38.3%; inhibition of growth at 1 µg/mL (Bacillus subtilis [23]): 28.8%; inhibition of growth at 1 µg/mL (Escherichia coli [24]): 23.4%
CC(=O)O[C@H]1C(=O)[C@@]2(C)[C@H]([C@H](OC(=O)c3ccccc3)[C@]3(O)C[C@H](OC(=O)[C@H](O)[C@@H](NC(=O)c4ccccc4)c4ccccc4)C(C)=C1C3(C)C)[C@]1(OC(C)=O)CO[C@@H]1C[C@@H]2O [PACLITAXEL] |  |  |  |  |  |  |  |  |  |  |  |  |  |  |  |  |  |  |  |  | GI90 (A549): 0.0706 µg/mL (≈ 0.0827 µM); GI90 (PANC-1): 5.715 µg/mL (≈ 6.69 µM); GI90 (HeLa): 0.075 µg/mL (≈ 0.0878 µM)
CO[C@H]1/C=C/O[C@@]2(C)Oc3c(C)c(O)c4c(O)c(c(/C=N/N5CCN(C)CC5)c(O)c4c3C2=O)NC(=O)/C(C)=C\C=C\[C@H](C)[C@H](O)[C@@H](C)[C@@H](O)[C@@H](C)[C@H](OC(C)=O)[C@@H]1C [RIFAMPIN] |  | 94.6 | 99 | 96.8 | 99.5 |  |  | 96.4 |  |  |  |  |  |  |  | 0.04 | 0.98 (≈ 0.806 µg/mL) | 98 | 0.0024 | 0.91 (≈ 0.749 µg/mL) | GI90 (A549): > 100 µg/mL; GI50 [25]: > 100 µg/mL; GI90 (PANC-1): > 100 µg/mL; GI50 [26]: > 100 µg/mL; GI90 (HeLa): > 100 µg/mL; GI50 [27]: > 100 µg/mL

— ChEMBL document CHEMBL4024727, “Synthesis and antimycobacterial screening of new thiazolyl-oxazole derivatives” (Eur J Med Chem, 2017)
